Assay results reported in patent US9062093B2, “Peptide compositions and methods for treating patients” (THE REGENTS OF THE UNIVERSITY OF MICHIGAN, priority 2011, dated 2015).

System: C57BL/6J mice
Assay: Blood glucose after oral load of glucose together with amino acid or peptide
Assay type: in vivo
Conditions: for Blood glucose levels in mice loaded with glucose: non-diabetic mice, glucose 2 mg/g bw and peptide 1 mg/g bw orally
Protocol: An experiment was performed in adult male C57BL/6J mice purchased from Jackson Lab (Bar Harbor, Me.). Fasted mice were given glucose (2 mg/g body weight, diamond line in FIG. 1, n=10) or glycine (0.35 mg/g bw, square line in FIG. 1, n=10) and glucose by gavaging. Blood glucose was measured at 0, 30, 60, 90, and 120 min after giving glucose.
An experiment was performed in adult male C57BL/6J mice purchased from Jackson Lab. In the control group (diamond line in FIG. 13, n=10), glucose was orally administered at dose of 2 mg/g bw. In the Diapin and LLG group (square line or triangle line, n=9), glucose and Diapin or glucose and LLG were orally administered at dose of 2 mg/g bw and 1 mg/g bw, respectively. Blood glucose was measured at 0, 30, 60, 90 and 120 min after gavaging glucose and Diapin.
An experiment was performed in adult male C57BL/6J mice purchased from Jackson Lab. In the control group (diamond line in FIG. 14, n=10), glucose was orally administered at dose of 2 mg/g bw. […] Blood glucose was measured at 0, 30, 60, 90 and 120 min after gavaging glucose and GLG or GLL.
An experiment was performed in adult male C57BL/6J mice purchased from Jackson Lab. […] Blood glucose was measured at 0, 0.5, 1, 1.5 and 2 hours after gavaging glucose, Diapin and amidated Diapin.
An experiment was performed in adult male C57BL/6J mice purchased from Jackson Lab. […] Blood glucose was measured at 0, 0.5, 1, 1.5 and 2 hours after gavaging glucose, Diapin, and acetylated Diapin.
An experiment was performed in adult male C57BL/6J mice purchased from Jackson Lab. […] Blood glucose was measured at 0, 0.5, 1, 1.5 and 2 hours after gavaging glucose, Diapin and amidated/acetylated Diapin.
(§1) An experiment was performed in adult male C57BL/6J mice purchased from Jackson Lab. […] Blood glucose was measured at 30, 60, 90 and 120 min after giving glucose. […]
as §1

Compound	Blood glucose levels compared to the control group (glycine 0.35 mg/g bw and glucose 2 mg/g bw by gavage, fasted mice, any time point (0, 30, 60, 90, 120 min))	Blood glucose levels in mice loaded with glucose
NCC(=O)O [glycine, reference compound]	not significantly changed	–
Glycine-Leucine-Leucine [GLL]	–	significantly reduce blood glucose levels
Leucine-Leucine-Glycine [LLG]	–	significantly reduce blood glucose levels
